Test results published in US20200261409A1, “METHODS FOR PAIN TREATMENT USING RESINIFERATOXIN” (priority 2015, published 2020).
Entries after “also recorded” stand apart in the source; their conditions may differ.

Columns and labels:
[1] = system: other neuronal populations in the spinal cord (NeuN; primary motor neurons); assay: Neuronal nuclei (NeuN) staining of the spinal cord after PG-ED injection; format: in vivo, Yucatan miniature swine; settings: PG-ED injection of RTX; FIGS. 3A-3D
Procedure: The study was approved by the Institutional Animal Care and Use Committee of the Mayo Clinic. Female Yucatan miniature swine (Exemplar Genetics, Sioux Center, Iowa, USA) weighing 25-45 kg at the time of RTX administration were used. For both procedures (i.e., ACLT and PG-ED injection), the pigs were anesthetized by intramuscular injection of Telazol (tiletamine and zolazepam, 5 mg/kg; Fort Dodge Animal Health, Fort Dodge, Iowa, USA), xylazine (2 mg/kg; Akorn, Decatur, Ill., USA), and glycopyrrolate (0.01 mg/kg; Baxter Healthcare, Deerfield, Ill., USA), followed by endotracheal intubation and anesthesia maintenance with 1.5%-2% isoflurane (Piramal Healthcare, Bethlehem, Pa., USA). For antibiotic prophylaxis, the animals were given a single dose of intramuscular ceftiofur (5 mg/kg; Pfizer, New York, N.Y., USA). For postoperative analgesia, the animals received a single dose of slow release buprenorphine (0.18 mg/kg; Wildlife Pharmaceuticals, Windsor, Colo., USA) intramuscularly and then oral carprofen (3 mg/kg; Pfizer Animal Health, New York, N.Y., USA) as needed for the first three postoperative days. For CTF guided PG-ED injection of RTX, a clinical CT scanner (Definition DS, Siemens Healthcare) with interventional CTF hardware and software packages was used. […]

[2] = system: swine with gait asymmetry due to chronic knee pain induced by unilateral ACLT; assay: Blinded behavioral assessment of the limp in the ACLT knee osteoarthritis model; format: in vivo, Yucatan miniature swine
Procedure: (§1) The study was approved by the Institutional Animal Care and Use Committee of the Mayo Clinic. Female Yucatan miniature swine (Exemplar Genetics, Sioux Center, Iowa, USA) weighing 25-45 kg at the time of RTX administration were used. For both procedures (i.e., ACLT and PG-ED injection), the pigs were anesthetized by intramuscular injection of Telazol (tiletamine and zolazepam, 5 mg/kg; Fort Dodge Animal Health, Fort Dodge, Iowa, USA), xylazine (2 mg/kg; Akorn, Decatur, Ill., USA), and glycopyrrolate (0.01 mg/kg; Baxter Healthcare, Deerfield, Ill., USA), followed by endotracheal intubation and anesthesia maintenance with 1.5%-2% isoflurane (Piramal Healthcare, Bethlehem, Pa., USA). For antibiotic prophylaxis, the animals were given a single dose of intramuscular ceftiofur (5 mg/kg; Pfizer, New York, N.Y., USA). For postoperative analgesia, the animals received a single dose of slow release buprenorphine (0.18 mg/kg; Wildlife Pharmaceuticals, Windsor, Colo., USA) intramuscularly and then oral carprofen (3 mg/kg; Pfizer Animal Health, New York, N.Y., USA) as needed for the first three postoperative days. For CTF guided PG-ED injection of RTX, a clinical CT scanner (Definition DS, Siemens Healthcare) with interventional CTF hardware and software packages was used. A full CT scan of the lumbosacral 13 spine was first performed to visualize the spinal anatomy and to identify the optimal access routes to the targeted PG-ED segments. The CT scanner acquisition settings were the same as reported previously (J. Pleticha, et al., Pig lumbar spine anatomy and imaging-guided lateral lumbar puncture: A new large animal model for intrathecal drug delivery, J. Neurosci. Methods 216, 10-15 (2013)). Next, a 22 G, 6″ spinal needle with Quincke tip (Kimberly-Clark, Roswell, Ga., USA) was advanced to the PG-ED space following the predetermined trajectory. […]

[3] = system: rats; settings: subcutaneous and epidural administration; cited from earlier work
[4] = system: sP+ axons in the dorsal horn of the spinal cord; assay: Substance P (sP) immunohistochemistry of the spinal cord after PG-ED injection; format: in vivo, Yucatan miniature swine
Procedure: as §1

| Compound | NeuN staining (spinal cord neurons, motor neurons of the anterior horn) [1] | limp / gait asymmetry, before vs after injection (blinded observers) ([2]; ACLT pigs, n=3 RTX, PG-ED at ipsilateral L4, L5, 51, and S2, 3-5 weeks after administration, sign test p<0.02) | clinically observed pain-related behavior (blinded observer) ([2]; Example 7, pigs with knee osteoarthritis, n=8, PG-ED, p=0.03) | thermal analgesia, time without restoration of pain sensitivity [3] | sP+ axonal terminals in the dorsal horn at injected spinal levels, ACLT animals ([4]; ACLT pigs, n=3 RTX, PG-ED at ipsilateral L4, L5, 51, and S2, FIGS. 4A-4F) | RTX dosed animals with low/none sP histology (blinded observer) ([4]; Example 7, second group of pigs, PG-ED, doses of 1.5 μg and 5 μg, P=0.002) | sP+ axons/fibers in the dorsal horn of the spinal cord at the injected levels ([4]; PG-ED injection, 5 μg RTX in 500 μl diluent per spinal level, blinded analysis, n=10 animals in study, sign test p<0.001) | weight-bearing asymmetry ([2]; ACLT pigs, intramuscular, unblinded observations) |
| --- | --- | --- | --- | --- | --- | --- | --- | --- |
| C=C(C)[C@]12C[C@@H](C)[C@@]34OC(Cc5ccccc5)(O[C@@H]1[C@@H]3C=C(COC(=O)Cc1ccc(O)c(OC)c1)C[C@]1(O)C(=O)C(C)=C[C@@H]41)O2 [RTX] | unaffected; also recorded: not affected | improvements in symmetric weight bearing; also recorded: improvement of limp in all animals; also recorded: all animals receiving RTX improved; also recorded: significant reversal of gait asymmetry | improved | over 7 days | complete loss of sP+ fibers; also recorded: complete loss of the sP+ axonal terminals | 6 of 6 | no sP staining; also recorded: complete loss of sP+ axons |  |
| CN1CC[C@]23c4c5ccc(O)c4O[C@H]2[C@@H](O)C=C[C@H]3[C@H]1C5 [morphine] |  |  |  |  |  |  |  | diminished weight-bearing asymmetry |
